From patent publication US8815295B1, “Anti respiratory syncytial virus peptide functionalized gold nanoparticles” (Alabama State University, priority 2011, dated 2014) come the findings set out here.

For this data set, the system named is human epidermoid cancer (HEp-2) cells. The data set can be described thus: MTT cell viability (cytotoxicity) assay. Conditions: 24 and 48 hours, concentrations up to 50 μg/ml. As for the experimental part: The peptides and carboxylated gold nanoparticles were tested for cytotoxic effects on human epidermoid cancer (HEp-2) cells. Cell viability was assessed by measuring cell concentration of a tetrazolium salt (3-(4,5 dimethyl-2-yl)-5-(3-carboxy-methoxyphenyl)-2-(4-sulfophenyl)-2H-tetrazolium) […]. If cells are viable the mitochondria will reduce the MTT. The cells were grown overnight in minimal essential medium (MEM) supplemented with L-glutamine, Penicillin, streptomycin, and kanamycin. 2.7×10^5 cells/well in 100 μl were seeded into 96-well plates in MEM. Cells were allowed to grow overnight in an incubator at 37° C., with a 5% CO2 humidified atmosphere, until the carboxylated gold nanoparticles were added. […] Treated cells were further incubated at 37° C., 5% CO2 for 24, and 48 hours. At the end of the corresponding incubation time, 15 μl of MTT dye was added into each well and the plates were allowed to incubate for the next 4 hours in the dark. The reaction was then stopped with 100 μl of stop solution. The absorbance of the media was measured at 570 nm on a TECAN Sunrise enzyme-linked immunosorbent assay plate reader (TECAN, US Inc., Durham, N.C., USA). Non-treated cells in growth media were used as a control.

Peptide text beside a SMILES is read from it.

Take `CC[C@H](C)[C@H](NC(=O)[C@H](Cc1ccccc1)NC(=O)[C@H](C)NC(=O)[C@H](CC(C)C)NC(=O)[C@H](CO)NC(=O)[C@H](CCC(N)=O)NC(=O)[C@H](CC(N)=O)NC(=O)[C@@H](NC(=O)[C@H](CCCCN)NC(=O)[C@H](CCC(=O)O)NC(=O)[C@H](CC(N)=O)NC(=O)[C@@H](NC(=O)[C@H](CCC(N)=O)NC(=O)[C@H](CO)NC(=O)[C@@H](NC(=O)[C@@H](N)CO)[C@@H](C)CC)C(C)C)[C@@H](C)CC)C(=O)N[C@@H](CCCNC(=N)N)C(=O)N[C@@H](CCCCN)C(=O)N[C@@H](CO)C(=O)N[C@@H](CC(=O)O)C(=O)O` [RF491] (H-SISQVNEKINQSLAFIRKSD-OH): the “effect on cell viability” value was “no significant effect”. As for “VFPSDEFDASISQVNEKINQSLAFIRKSDLLHNVNAGKK (respiratory syncytial virus) [RF482]”, the entry is “no significant effect”.
